Results: patent US5977133A, “Pyridone antibiotic with improved safety profile” (priority 1998, dated 1999)
Where a name gives a salt, the structure may show the parent alone.

What was measured:
Type in all cases: cell-based
[1] = tested on: Providencia spp.; experiment: In vitro MIC, agar dilution
[2] = tested on: P. aeruginosa (CiproR); experiment: In vitro MIC, agar dilution; conditions: Pseudomonas aeruginosa, P. aeruginosa (CiproR), 20 isolates
[3] = tested on: S. aureus (CiproS); experiment: In vitro MIC, agar dilution; conditions: Staphylococcus aureus
[4] = tested on: Enterobacter spp.; experiment: In vitro MIC, agar dilution
[5] = tested on: C. perfringens; experiment: microbe, parasite or virus in culture; conditions: Clostridium perfringens
[6] = tested on: S. pyogenes; experiment: In vitro MIC, agar dilution; conditions: Streptococcus pyogenes
[7] = tested on: B. fragilis; experiment: In vitro MIC, agar dilution; conditions: Bacteroides fragilis
[8] = tested on: Klebsiella spp.; experiment: In vitro MIC, agar dilution
[9] = tested on: H. influenzae; experiment: In vitro MIC, agar dilution; conditions: Haemophilus influenzae, H. influenzae, 18 isolates
[10] = tested on: C. freundii; experiment: In vitro MIC, agar dilution; conditions: Citrobacter freundii
[11] = tested on: E. faecium (CiproS); experiment: In vitro MIC, agar dilution; conditions: Enterococcus faecium
[12] = tested on: S. epidermidis (CiproS); experiment: In vitro MIC, agar dilution; conditions: Staphylococcus epidermidis
[13] = tested on: P. mirabilis; experiment: In vitro MIC, agar dilution; conditions: Proteus mirabilis
[14] = tested on: E. faecalis (VanS); experiment: In vitro MIC, agar dilution; conditions: Enterococcus faecalis
[15] = tested on: Salmonella spp.; experiment: In vitro MIC, agar dilution; conditions: 23 isolates
Procedure, shortened: (§1)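 MIC, the lowest compound level without growth versus a drug-free BHI control plate, with faint haze or scattered colonies scored as no growth. About 10^4 CFU was replicator-spotted from 1:100 dilutions, or 1:10 for slow-growing strains, and plates were read after ~20–24 h at 35–37 °C.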

[16] = tested on: E. coli; experiment: In vitro MIC, agar dilution; conditions: Escherichia coli, 25 isolates
Procedure, shortened: as §1

[17] = tested on: Enterococcus spp. (VanR); experiment: In vitro MIC, agar dilution
[18] = tested on: S. pneumoniae (PenR); experiment: In vitro MIC, agar dilution; conditions: Streptococcus pneumoniae
[19] = tested on: Shigella spp.; experiment: microbe, parasite or virus in culture; conditions: read-out: MIC Range
[20] = tested on: S. pneumoniae (PenS); experiment: In vitro MIC, agar dilution; conditions: Streptococcus pneumoniae
[21] = tested on: P. aeruginosa (CiproS); experiment: In vitro MIC, agar dilution; conditions: Pseudomonas aeruginosa, P. aeruginosa (CiproS), 24 isolates
[22] = tested on: S. aureus (CiproR); experiment: In vitro MIC, agar dilution; conditions: Staphylococcus aureus
[23] = tested on: N. gonorrhoeae; experiment: In vitro MIC, agar dilution; conditions: Neisseria gonorrhoeae
[24] = tested on: S. epidermidis (CiproR); experiment: In vitro MIC, agar dilution; conditions: Staphylococcus epidermidis
[25] = tested on: M. avium; experiment: In vitro MIC, agar dilution; conditions: Mycobacterium avium
[26] = tested on: E. faecium (CiproR); experiment: In vitro MIC, agar dilution; conditions: Enterococcus faecium; E. faecium (CiproR), 2 isolates; read-out: MIC Range
[27] = tested on: M. pneumoniae; experiment: In vitro MIC, agar dilution; conditions: Mycoplasmoides pneumoniae; M. pneumoniae, 7 isolates; read-out: MIC Range
[28] = tested on: H. pylori; experiment: In vitro MIC, agar dilution; conditions: Helicobacter pylori
[29] = tested on: S. pneumoniae (CiproR); experiment: In vitro MIC, agar dilution; conditions: Streptococcus pneumoniae, read-out: MIC Range
[30] = tested on: C. difficile; experiment: In vitro MIC, agar dilution; conditions: Clostridioides difficile

SMILES: Cc1c(N2C[C@@H](N)C3(CC3)C2)c(F)cn2c(=O)c(C(=O)O)cc(C3CC3)c12 [Example 5, 1-cyclopropyl-8-(7(S)-amino-5-azaspiror2.41heptvl)-7-fluoro-9-methyl4-oxo-4H-quinolizine-3-carboxylic acid hydrochloride]
- MIC90 ([1]; Providencia): 0.06 µg/mL
- MIC50 ([1]; Providencia spp., 28 isolates, read-out: MIC50): 0.015 µg/mL
- MIC ([1]; Providencia spp., 28 isolates, read-out: MIC Range): 0.008 to 0.25 µg/mL
- MIC50 ([2]; read-out: MIC50): 8 µg/mL
- MIC90 ([2]; read-out: MIC90): 16 µg/mL
- MIC ([2]; read-out: MIC Range): 4 to 16 µg/mL
- MIC90 [3]: 0.015 µg/mL
- MIC50 ([3]; S. aureus (CiproS), 21 isolates, read-out: MIC50): 0.015 µg/mL
- MIC ([3]; S. aureus (CiproS), 21 isolates, read-out: MIC Range): 0.008 to 0.03 µg/mL
- MIC90 ([4]; Enterobacter): 0.03 µg/mL
- MIC50 ([4]; Enterobacter spp., 35 isolates, read-out: MIC50): 0.015 µg/mL
- MIC ([4]; Enterobacter spp., 35 isolates, read-out: MIC Range): 0.004 to 0.12 µg/mL
- MIC50 [5]: 0.06 µg/mL
- MIC90 ([5]; C. perfringens, 13 isolates): 0.12 µg/mL
- MIC ([5]; read-out: MIC Range): 0.06 to 0.12 µg/mL
- MIC50 [6]: 0.03 µg/mL
- MIC90 [6]: 0.03 µg/mL
- MIC ([6]; S. pyogenes, 21 isolates, read-out: MIC Range): 0.015 to 0.06 µg/mL
- MIC50 [7]: 0.03 µg/mL
- MIC90 [7]: 0.03 µg/mL
- MIC ([7]; B. fragilis, 18 isolates, read-out: MIC Range): 0.015 to 0.06 µg/mL
- MIC50 ([8]; Klebsiella): 0.03 µg/mL
- MIC90 ([8]; Klebsiella): 0.06 µg/mL
- MIC ([8]; Klebsiella spp., 29 isolates, read-out: MIC Range): 0.002 to 0.12 µg/mL
- MIC50 ([9]; read-out: MIC50): 0.002 µg/mL
- MIC90 ([9]; read-out: MIC90): 0.008 µg/mL
- MIC ([9]; read-out: MIC Range): 0.001 to 0.008 µg/mL
- MIC90 [10]: 0.12 µg/mL
- MIC50 ([10]; C. freundii, 20 isolates, read-out: MIC50): 0.015 µg/mL
- MIC ([10]; C. freundii, 20 isolates, read-out: MIC Range): 0.008 to 0.12 µg/mL
- MIC90 [11]: 0.5 µg/mL
- MIC ([11]; read-out: MIC Range): 0.25 to 0.5 µg/mL
- MIC50 ([11]; E. faecium (CiproS), 16 isolates, read-out: MIC50): 0.5 µg/mL
- MIC90 [12]: 0.03 µg/mL
- MIC50 ([12]; S. epidermidis (CiproS), 23 isolates, read-out: MIC50): 0.015 µg/mL
- MIC ([12]; S. epidermidis (CiproS), 23 isolates, read-out: MIC Range): 0.004 to 0.03 µg/mL
- MIC50 [13]: 0.03 µg/mL
- MIC90 [13]: 0.06 µg/mL
- MIC ([13]; read-out: MIC Range): 0.015 to 0.12 µg/mL
- MIC90 [14]: 0.25 µg/mL
- MIC ([14]; read-out: MIC Range): 0.06 to 0.25 µg/mL
- MIC50 ([14]; E. faecalis (VanS), 17 isolates, read-out: MIC50): 0.12 µg/mL
- MIC [15]: 0.004 to 0.12 µg/mL
- MIC50 ([15]; read-out: MIC50): 0.015 µg/mL
- MIC90 ([15]; read-out: MIC90): 0.03 µg/mL
- MIC [16]: 0.004 to 0.015 µg/mL
- MIC50 ([16]; read-out: MIC50): ≤ 0.004 µg/mL
- MIC90 ([16]; read-out: MIC90): 0.015 µg/mL
- MIC90 ([17]; Enterococcus): 0.5 µg/mL
- MIC50 ([17]; Enterococcus spp. (VanR), 21 isolates, read-out: MIC50): 0.5 µg/mL
- MIC ([17]; Enterococcus, read-out: MIC Range): 0.25 to 4 µg/mL
- MIC90 [18]: 0.06 µg/mL
- MIC50 ([18]; S. pneumoniae (PenR), 25 isolates, read-out: MIC50): 0.06 µg/mL
- MIC ([18]; S. pneumoniae (PenR), 25 isolates, read-out: MIC Range): 0.03 to 0.06 µg/mL
- MIC [19]: 0.001 to 0.008 µg/mL
- MIC90 [20]: 0.06 µg/mL
- MIC50 ([20]; S. pneumoniae (PenS), 20 isolates, read-out: MIC50): 0.06 µg/mL
- MIC ([20]; S. pneumoniae (PenS), 20 isolates, read-out: MIC Range): 0.03 to 0.06 µg/mL
- MIC50 ([21]; read-out: MIC50): 0.12 µg/mL
- MIC90 ([21]; read-out: MIC90): 1 µg/mL
- MIC ([21]; read-out: MIC Range): 0.06 to 1 µg/mL
- MIC90 [22]: 0.25 µg/mL
- MIC50 ([22]; S. aureus (CiproR), 25 isolates, read-out: MIC50): 0.12 µg/mL
- MIC ([22]; S. aureus (CiproR), 25 isolates, read-out: MIC Range): 0.03 to 0.5 µg/mL
- MIC90 [23]: 0.015 µg/mL
- MIC50 ([23]; N. gonorrhoeae, 12 isolates, read-out: MIC50): 0.002 µg/mL
- MIC ([23]; N. gonorrhoeae, 12 isolates, read-out: MIC Range): 0.002 to 0.015 µg/mL
- MIC90 [24]: 0.25 µg/mL
- MIC ([24]; read-out: MIC Range): 0.12 to 1 µg/mL
- MIC50 ([24]; S. epidermidis (CiproR), 11 isolates, read-out: MIC50): 0.25 µg/mL
- MIC ([25]; read-out: MIC Range): 0.25 to 4 µg/mL
- MIC50 ([25]; M. avium, 20 isolates, read-out: MIC50): 1 µg/mL
- MIC90 ([25]; M. avium, 20 isolates, read-out: MIC90): 2 µg/mL
- MIC [26]: 0.5 to 4 µg/mL
- MIC [27]: 0.015 to 0.03 µg/mL
- MIC50 [28]: 0.03 µg/mL
- MIC90 [28]: 0.06 µg/mL
- MIC ([28]; H. pylori, 17 isolates, read-out: MIC Range): 0.015 to 0.06 µg/mL
- MIC [29]: 0.06 to 0.12 µg/mL
- MIC90 [30]: 0.25 µg/mL
- MIC ([30]; read-out: MIC Range): 0.12 to 0.25 µg/mL
- MIC50 ([30]; C. difficile, 10 isolates, read-out: MIC50): 0.25 µg/mL
